Each structure is given as a SMILES string. Structures can show the parent of a compound that is named as a salt.

Here are results for eight molecules from US9388449B2, “Monitoring protein trafficking using beta-galactosidase reporter fragment complementation” (DiscoveRx Corporation, priority 2011, dated 2016).

The test system of one series is rhodopsin GPCR. As to the kind of experiment: Translocation of ED-tagged rhodopsin GPCR by complementation (model of retinitis). The series is classed as cell-based. The source says:
(§1) In a model of retinitis, the rhodopsin GPCR was tagged with an ED, and its translocation was studied in response to addition of 9-cis retinol. […] Also, AVPR2 (Arginine vasopressin receptor 2), a GPCR for which antagonists are used therapeutically, was studied with SR49059, a small molecule vasopressin V1a receptor antagonist. […] More than 200 mutations in the AVPR2 gene have been identified in people with nephrogenic diabetes insipidus. Most of these mutations cause the vasopressin V2 receptor protein to be misfolded into an incorrect 3-dimensional shape. Thus the present assay finds particular applicability in identifying compounds that bind to the AVPR2 gene product in the case of a misfolding mutation which occurs in humans.

The next series deals with ADRB2 W158A. As to the kind of experiment: Arrestin activity assay. The series is classed as cell-based. The conditions noted are these: compound 10 μM; signal of test well divided by signal of buffer-only control wells. The procedure: (§2) The cells were lysed and the complemented activity was measured using a chemiluminescent b-galactosidase substrate. The values of each well containing a test compound was divided by the signal obtained from the control wells that received only buffer.

The target of the next series is T1, ADRB2 W158A mutant (Homo sapiens, UniProt P07550, W158A).
T1 construct: expressed in transfected cells
The series can be described thus: Trafficking assay: β-galactosidase enzyme fragment complementation, ADRB2 W158A-ProLink with endosome-localized EA. Conditions: compound 10 μM; signal of test well divided by signal of buffer-only control wells. The series is classed as cell-based.
Description: The ADRB2 is a G-protein coupled receptor containing seven transmembrane regions. It was been shown that mutation of W158 to alanine can cause retention of the protein in the endoplasmic reticulum. Contacting the receptor with small molecules that bind to ADRB2 results in enhanced movement of the protein to the plasma membrane and endosomal compartments.
The first fusion protein used comprises the target peptide (ADRB2W158A-PK) and the first fragment of complementation assay. This construct includes the W158 to alanine mutation. The second fusion protein used comprises endosome localized protein and the second fragment of complementation assay.
as §2

The next series concerns the target ADRB2 (Homo sapiens, UniProt P07550). As to the kind of experiment: cAMP activity assay (Gs ADRB2). Type of series: cell-based. Conditions: compound 10 μM; signal of test well divided by signal of buffer-only control wells. As to the method: as §2
The target in series [1] is KCNH2 (hERG) mutant, Kv11.1 potassium ion channel (Homo sapiens, UniProt Q12809, form not given). As to the kind of experiment: in vitro.
Series [2] deals with KCNH2 (hERG) mutant, Kv11.1 potassium ion channel (Homo sapiens, UniProt Q12809). The conditions noted are these: KCNH2 mutant-PK cells, overnight, FIG. 5 curve fit.
Description: A single-point mutation is introduced in KCNH2. The second fusion protein used comprises plasma membrane localized protein and the second fragment of complementation assay. The second fragment of complementation assay was localized to the plasma membrane by fusing it to PH domain of phospholipase C gamma.
In this experiment, cells expressing the KCNH2 mutant fused to the first fragment of complementation assay (ProLink™ peptide) and the plasma membrane localized EA were treated with a variety of compounds that bind to the ion channel.
Binding of ligand leads to stabilization (“rescue”) and transport of the protein to the membrane.—PLC(PH)-EA anchors to the membrane. […] The assay is run overnight.
Series [3] has as its target T2, AVPR2 (Arginine vasopressin receptor 2) (Homo sapiens, UniProt P30518).
T2 construct: expressed in transfected cells
As to the kind of experiment: Trafficking of AVPR2 target peptide by complementation. Type of series: cell-based.
Description: as §1

T2 sequence (P30518 whole entry): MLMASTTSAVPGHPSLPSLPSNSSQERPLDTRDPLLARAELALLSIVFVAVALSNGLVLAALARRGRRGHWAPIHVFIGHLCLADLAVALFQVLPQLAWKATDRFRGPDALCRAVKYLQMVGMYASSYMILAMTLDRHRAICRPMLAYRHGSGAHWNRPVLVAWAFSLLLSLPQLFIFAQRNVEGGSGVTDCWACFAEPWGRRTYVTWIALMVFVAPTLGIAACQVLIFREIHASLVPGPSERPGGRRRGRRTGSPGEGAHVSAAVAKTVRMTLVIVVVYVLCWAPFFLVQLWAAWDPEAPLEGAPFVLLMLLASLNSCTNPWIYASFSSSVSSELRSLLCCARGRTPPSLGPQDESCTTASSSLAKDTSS

Consider `CC1=C(/C=C/C(C)=C\C=C\C(C)=C\CO)C(C)(C)CCC1` [9-cis retinol], for which the “translocation of ED-tagged rhodopsin in response to compound (result in words)” value in the series with rhodopsin GPCR is listed as “dose-response curve showed sensitive results”.

Turning to `CC(C)(C)NC[C@H](O)COc1nsnc1N1CCOCC1.O=C(O)/C=C\C(=O)O` [(S)-Timolol maleate], in the series with ADRB2 W158A, the “Arrestin W158A S/B” value is given as 0.9.

As to `CC(C)(C)NCC(O)COc1cccc2[nH]c(C#N)cc12.CC(C)(C)NCC(O)COc1cccc2[nH]c(C#N)cc12.O=C(O)/C=C/C(=O)O` (stereo not drawn) [(—)-Cyanopindolol hemifumarate], the “Arrestin W158A S/B” value in the series with ADRB2 W158A is on record as 1.0. Besides, the “Trafficking 5-EA ADRB2 S/B” value at ADRB2 W158A mutant was 17.1. Besides, the “cAMP Gs ADRB2 S/B” value on ADRB2 was found to be 1.8.

Broadly, the EC50 is the concentration needed to bring the measured effect to its halfway point. Read a high EC50 as weaker potency. As to `O=C(CCCN1CCC(O)(c2ccc(Cl)cc2)CC1)c1ccc(F)cc1` [Haloperidol], the EC50 in series [1] worked out at 15.3 mM. Further, in series [2], the BOTTOM stood at 7500, the HILLSLOPE was 0.5120, the LOGEC50 is listed as −1.815 and the TOP is given as 537564.

Regarding `COc1ccccc1N1CCN(CC(O)COc2cccc3ccccc23)CC1.Cl.Cl` (stereo not drawn) [Naftopidil 2HCl], the “Arrestin W158A S/B” value in the series with ADRB2 W158A amounted to 1.0. For the same molecule, the “Trafficking 5-EA ADRB2 S/B” value on ADRB2 W158A mutant is 6.8. Also, the “cAMP Gs ADRB2 S/B” value at ADRB2 was determined as 1.0.

On to `CCC(NC(C)C)C(O)c1ccc(O)c2[nH]c(=O)ccc12` (stereo not drawn) [Procaterol HCl], for which, in the series with ADRB2 W158A, the “Arrestin W158A S/B” value is on record as 21.3. Besides, on ADRB2 W158A mutant, the “Trafficking 5-EA ADRB2 S/B” value is reported as 78.2. On ADRB2, the “cAMP Gs ADRB2 S/B” value is 15.2.

For the molecule `CC(C)NCC(O)COc1cccc2ccccc12` (stereo not drawn) [Propanolol HCl], the “Arrestin W158A S/B” value in the series with ADRB2 W158A was 0.9.

Turning to `COc1ccc(S(=O)(=O)N2c3ccc(Cl)cc3[C@](O)(c3ccccc3Cl)[C@@H]2C(=O)N2CCC[C@H]2C(N)=O)cc1OC` [SR49059], the “dose response of AVPR2 trafficking to compound (result in words)” value in series [3] was “dose response curve was obtained”.
